Consider six compounds from patent US20240390296A1, “R-KETAMINE AND DERIVATIVE THEREOF AS PROPHYLACTIC OR THERAPEUTIC AGENT FOR NEURODE[…] OR R[…]” (National University Corporation Chiba University, priority 2017, published 2024).

Structures are written as SMILES.

Series [1] relates to animal model of Parkinson's disease. The conditions noted are these: 50 mg/kg (anesthetic dose), cited from earlier work.
A further series concerns MPTP-treated mice. Kind of series: MPTP mouse model of Parkinson's disease, DAT immunohistochemistry in the striatum. The series is classed as in vivo. The text has this: A Parkinson's disease model animal (Jackson-Lewis V. et al. Protocol for the MPTP mouse model of Parkinson's disease. Nat Protoc. 2007; 2 (1): 141-51.), which is a representative Parkinson's disease animal model and has been used by a number of research groups so far, was used to study the therapeutic effect of R-ketamine and S-ketamine on the loss of the dopamine nervous system in the brain of the model animal.
The creation of the Parkinson's disease model animal and the administration of the drug were specifically carried out as described below (FIG. 1). As the mouse, a male C57BL/6N mouse (12 weeks of age, SLC Japan Co., Ltd., Hamamatsu, Japan) was purchased. Mice had free access to water and food. For the experiment, those above 14 weeks of age were used. On the first day of the experiment, physiological saline (5 mL/kg body weight) or MPTP (10 mg/kg body weight) was intraperitoneally administered three times at two hours intervals. Three hours after the final administration, R-ketamine (10 mg/kg body weight) or S-ketamine (10 mg/kg body weight), or a vehicle (physiological saline 0.5 mL/kg) was intranasally administered. Similarly, from the second day to the seventh day of the experiment, R-ketamine (10 mg/kg body weight) or S-ketamine (10 mg/kg body weight), or the vehicle (physiological saline 0.5 mL/kg) was intranasally administered. (A) is a group administered with physiological saline+physiological saline, (B) is a group administered with MPTP+physiological saline, (C) is a group administered with MPTP+R-ketamine, and (D) is a group administered with MPTP+S-ketamine. On the eighth day of the experiment, mice were perfused and fixed, and immunohistochemistry of dopamine transporter (DAT) was carried out. The immunohistochemistry of DAT was photographed with a microscope equipped with a CCD camera (Olympus IX70, Tokyo, Japan), and the shading was analyzed using SCION IMAGE software. Representative immunohistochemical photographs were taken with a Keyence microscope (BZ-9000, Osaka, Japan).
Statistical analysis was carried out by one-way analysis of variance (one-way ANOVA) followed by Tukey's test (Tukey HSD test). Data are expressed as mean±standard error (n=7 to 8 mouse/group). * p<0.05, ** p<0.01, and *** p<0.001 show significant differences compared to the (B) group of mice treated with MPTP+physiological saline.
The test was carried out in the same manner as in the test in FIG. 1 except that R-ketamine (10 mg/kg body weight) or the vehicle (physiological saline 0.5 mL/kg) was intranasally administered once (FIG. 4). There were a group administered with physiological saline+physiological saline, a group administered with MPTP+physiological saline, and a group administered with MPTP+R-ketamine.
The test was carried out in the same manner as in the test in FIG. 1 except that R-norketamine (10 mg/kg body weight) or S-norketamine (10 mg/kg body weight) was administered (FIG. 6). There were a group administered with physiological saline+physiological saline, a group administered with MPTP+physiological saline, a group administered with MPTP+R-norketamine, and a group administered with MPTP+S-norketamine.
The test was carried out in the same manner as in the test in FIG. 1 except that ANA-12 (0.5 mg/kg), an antagonist of the TrkB receptor for brain-derived neurotrophic factor (BDNF: Brain-derived Neurotrophic Factor), was administered before the administration of R-ketamine. (FIG. 8). It should be noted that in FIG. 8, ANA-12 is described as ANA. There was a group administered with physiological saline+physiological saline, a group administered with MPTP+physiological saline, a group administered with MPTP+R-ketamine, a group administered with MPTP+R-ketamine+ANA-12, and a group administered with MPTP+ANA-12.

The conditions of series [2]: animal experiments, non-patent literature 5; cited from earlier work.
The next series has as its system α-synuclein-treated mice. Nature of the series: Lewy body dementia model (intracerebroventricular α-synuclein), novel object recognition test (NORT). The series is classed as in vivo, mouse. The conditions noted are these: 10 mg/kg intraperitoneal once a day, day 2 to day 10; test session day 15; male ICR mice. An excerpt:
The therapeutic effects of R-ketamine and S-ketamine on cognitive dysfunction were studied using animal models of Lewy body dementia and diseases caused by α-synuclein aggregation (intracerebroventricular administration of α-synuclein), which have been used by a number of research groups so far.
The creation of the Lewy body dementia model animal and the administration of the drugs were specifically carried out as described below (FIG. 12). As the mouse, a male ICR mouse (five weeks of age, SLC Japan Co., Ltd., Hamamatsu, Japan) was purchased. Mice had free access to water and food. First, α-synuclein (StressMarq @ Bioscience, Cat #: SPR-322) was incubated at 37° C. for four days to let aggregate. On the first day of the experiment, mice were anesthetized with isoflurane and pentobarbital, and placed on a mouse brain fixation apparatus. Physiological saline (6 μL) or α-synuclein (6 μg) was administered intracerebroventricularly. […]
Statistical analysis was carried out by one-way analysis of variance (one-way ANOVA) followed by the Fisher's least significant difference test (Fisher's Least Significant Difference test). Data are expressed as mean±standard error (n=4 mouse/group). * p<0.05 and ** p<0.01 show significant differences compared to the group of mice treated with α-synuclein+physiological saline.

The next series concerns β-amyloid-treated mice. Nature of the series: Alzheimer's disease model (intracerebroventricular β-amyloid), novel object recognition test (NORT). The settings on record: 10 mg/kg intraperitoneal once a day, day 2 to day 10; test session day 15; male ICR mice. It counts as in vivo, mouse. An excerpt: Using an animal model of Alzheimer's disease (intracerebroventricular administration of β-amyloid), which has been used by a number of research groups so far, the therapeutic effect of R-ketamine and S-ketamine on the cognitive dysfunction was studied.
The creation of the Alzheimer's disease model animal and the administration of the drug were specifically carried out as described below (FIG. 10). As the mouse, a male ICR mouse (five weeks of age, SLC Japan Co., Ltd., Hamamatsu, Japan) was purchased. Mice had free access to water and food. First, β-amyloid (BACHEM, Cat. #: H-1192.0005) was incubated at 37° C. for four days to let aggregate. On the first day of the experiment, mice were anesthetized with isoflurane and pentobarbital, and placed on a mouse brain fixation apparatus. Distilled water (6 μL) or β-amyloid (6 μg) was administered intracerebroventricularly. […] On the 14th day of the experiment, two objects having different shapes and colors were placed on the NORT apparatus at a distance of 35.5 cm, and the time for searching for each object was measured. […] The time to search for two objects was measured, and the ratio of the time to search for a new object to the time to search for the two objects in the test session on the second day was calculated. […]

Another series has as its system NMDA receptor. The settings on record: non-patent literature 4; cited from earlier work.
The mark [3] stands for this setting: 10 mg/kg intranasal, day 1 (3 h after last MPTP) to day 7, DAT on day 8, male C57BL/6N mice.

Take `CNC1(c2ccccc2Cl)CCCCC1=O` (racemic) [RS-ketamine]: the “neuroprotective effect in an animal model of Parkinson's disease” value in series [1] (non-patent literature 2) is recorded as “has a neuroprotective effect”. Further, the “side effects such as an acute activity increase effect” value in series [1] was “notably observed”.
As for `O=C(Nc1ccccc1C(=O)NC1CCCCNC1=O)c1cc2ccccc2s1` (centres unmarked) [ANA-12], the “MPTP-induced decrease in DAT density” value in the series with MPTP-treated mice (ANA-12 alone, 0.5 mg/kg) is listed as “did not affect MPTP-induced decrease in DAT density”.
Turning to `CN[C@@]1(c2ccccc2Cl)CCCCC1=O` [R-ketamine], the “side effects (psychotic disorder triggering effect, drug dependency, and the like) compared with S-ketamine” value in series [2] is given as “fewer side effects”. Also, the “decrease in cognitive function caused by α-synuclein administration (NORT)” value with α-synuclein-treated mice is “significantly improved the decrease in cognitive function”. Moreover, the “MPTP-induced decrease in DAT density in the striatum” value is “significantly improved the decrease in DAT density” with MPTP-treated mice (setting [3]); “suppressed MPTP-induced decrease in DAT density” with MPTP-treated mice (10 mg/kg intranasal, single administration); “No effect of R-ketamine was observed” in the series on MPTP-treated mice (R-ketamine 10 mg/kg intranasal with ANA-12 (0.5 mg/kg) administered before). In the series on β-amyloid-treated mice, the “decrease in cognitive function caused by β-amyloid administration (NORT)” value is “significantly improved the decrease in cognitive function”.
On to `N[C@@]1(c2ccccc2Cl)CCCCC1=O` [R-norketamine], for which the “MPTP-induced decrease in DAT density in the striatum” value in the series on MPTP-treated mice (setting [3]) was “did not suppress MPTP-induced decrease in DAT density”.
Turning to `CN[C@]1(c2ccccc2Cl)CCCCC1=O` [S-ketamine], the “affinity for the NMDA receptor relative to R-ketamine” value with NMDA receptor is “about four times higher than R-ketamine”. The “MPTP-induced decrease in DAT density in the striatum” value in the series on MPTP-treated mice (setting [3]) is on record as “did not improve the decrease in DAT density”. Besides, the “decrease in cognitive function caused by β-amyloid administration (NORT)” value with β-amyloid-treated mice is “did not improve the decrease in cognitive function”.
With `N[C@]1(c2ccccc2Cl)CCCCC1=O` [S-norketamine], the “MPTP-induced decrease in DAT density in the striatum” value in the series on MPTP-treated mice (setting [3]) is “did not suppress MPTP-induced decrease in DAT density”.
